Measurements reported in US10681909B2, “Herbicidal triazoles” (FMC Corporation, priority 2014, dated 2020).

What was measured:
[1] = test system: wheat; experiment: Test A preemergence; assay type: in vivo, Triticum aestivum; settings: Triticum aestivum, pre-emergence, 240 h, 0 to 100 scale (0 no effect, 100 complete control), read-out: Plant response rating, Wheat; for plant injury at 125 g/ha: 125 g ai/ha; for plant injury at 500 g/ha: 500 g ai/ha, approx. 10 d
Method in brief: (§1)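 Plant seeds in loam soil blended with sand, then apply test chemical preemergence as a directed soil spray; in parallel, spray potted seedlings (one- to two-leaf, 2 to 10 cm) postemergence. Both treatments use a non-phytotoxic solvent mixture with surfactant.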

[2] = test system: velvetleaf; experiment: Test A postemergence; assay type: in vivo, Abutilon theophrasti; settings: Abutilon theophrasti, post-emergence, 240 h, 0 to 100 scale (0 no effect, 100 complete control), approx. 10 d, read-out: Plant response rating, Velvetleaf; for pest or weed control at 125 g/ha: 125 g ai/ha; for pest or weed control at 500 g/ha: 500 g ai/ha
Method in brief: as §1

[3] = test system: johnsongrass; experiment: Test C preemergence; assay type: in vivo, Sorghum halepense; settings: for Plant response rating (scale of 0 to 100 where 0 is no effect and 100 is complete control): Johnsongrass, preemergence; for Johnsongrass plant response rating (0 to 100): Preemergence, visual rating after 13 to 15 d
Excerpt: Seeds of plant species selected from blackgrass (Alopecurus myosuroides), ryegrass, Italian (Italian ryegrass, Lolium multiflorum), wheat (winter wheat, Triticum aestivum), galium (catchweed bedstraw, Galium aparine), corn (Zea mays), crabgrass, large (large crabgrass, Digitaria sanguinalis), foxtail, giant, (giant foxtail, Setaria faberii), johnsongrass (Sorghum halepense), lambsquarters (Chenopodium album), morningglory (Ipomoea coccinea), nutsedge, yellow (yellow nutsedge, Cyperus esculentus), pigweed (Amaranthus retroflexus), ragweed (common ragweed, Ambrosia elatior), soybean (Glycine max), barnyardgrass (Echinochloa crus-galli), oilseed rape (Brassica napus), waterhemp (common waterhemp, Amaranthus rudis), and velvetleaf (Abutilon theophrasti) were planted into a blend of loam soil and sand and treated preemergence with test chemicals formulated in a non-phytotoxic solvent mixture which included a surfactant. At the same time, plants selected from these crop and weed species and also chickweed (common chickweed, Stellaria media), oat, wild (wild oat, Avena fatua), and kochia (Kochia scoparia), were planted in pots containing Sunshine Redi-Earth® planting medium comprising spaghnum peat moss, vermiculite, starter nutrients and dolomitic limestone and treated with postemergence applications of test chemicals formulated in the same manner. Plants ranged in height from 2 to 18 cm (1- to 4-leaf stage) for postemergence treatments. […] A dash (-) response means no test result.

[4] = test system: canarygrass; experiment: Test D postemergence; assay type: in vivo, Phalaris minor; settings: scale 0 to 100
Excerpt: (§2) Seeds of plant species selected from bluegrass (annual bluegrass, Poa annua), blackgrass (Alopecurus myosuroides), canarygrass (Phalaris minor), chickweed (common chickweed, Stellaria media), galium (catchweed bedstraw, Galium aparine), bromegrass, down (downy bromegrass, Bromus tectorum), Russian thistle (Salsola kali), field poppy (Papaver rhoeas), field violet (Viola arvensis), foxtail, green (green foxtail, Setaria viridis), deadnettle (henbit deadnettle, Lamium amplexicaule), ryegrass, Ital. (Italian ryegrass, Lolium multiflorum), kochia (Kochia scoparia), lambsquarters (Chenopodium album), oilseed rape (Brassica napus), pigweed (Amaranthus retroflexus), chamomile (scentless chamomile, Matricaria inodora), speedwell (bird's-eye speedwell, Veronica persica), barley, spring (spring barley, Hordeum vulgare), wheat, spring (spring wheat, Triticum aestivum), buckwheat, wild (wild buckwheat, Polygonum convolvulus), wild mustard (Sinapis arvensis), oat, wild (wild oat, Avena fatua), radish, wild (wild radish, Raphanus raphanistrum), […]), barley, winter (winter barley, Hordeum vulgare), and wheat, winter (winter wheat, Triticum aestivum) were planted into a silt loam soil and treated preemergence with test chemicals formulated in a non-phytotoxic solvent mixture which included a surfactant. At the same time, these species were planted in pots containing Sunshine Redi-Earth® planting medium comprising spaghnum peat moss, vermiculite, starter nutrients and dolomitic limestone and treated with postemergence applications of the test chemicals formulated in the same manner. Plants ranged in height from 2 to 18 cm (1- to 4-leaf stage). Treated plants and controls were maintained in a controlled growth environment for 14 to 21 d after which time all species were compared to controls and visually evaluated. […] A dash (-) response means no test result.

[5] = test system: wheat, winter; experiment: Test D postemergence; assay type: in vivo, Triticum aestivum; settings: scale 0 to 100
Excerpt: as §2

[6] = test system: wheat, spring; experiment: Test D postemergence; assay type: in vivo, Triticum aestivum; settings: scale 0 to 100
Excerpt: as §2

[7] = test system: galium; experiment: Test D postemergence; assay type: in vivo, Galium aparine; settings: scale 0 to 100
Excerpt: as §2

[8] = test system: ryegrass, Ital.; experiment: Test D postemergence; assay type: in vivo, Lolium multiflorum; settings: scale 0 to 100
Excerpt: as §2

[9] = test system: ryegrass, Ital.; experiment: Test D preemergence; assay type: in vivo, Lolium multiflorum; settings: for Plant response rating: Ryegrass, Ital.: scale 0 to 100
Excerpt: as §2

[10] = test system: barley, winter; experiment: Test D postemergence; assay type: in vivo, Hordeum vulgare; settings: scale 0 to 100
Excerpt: as §2

[11] = test system: barley, spring; experiment: Test D postemergence; assay type: in vivo, Hordeum vulgare; settings: scale 0 to 100
Excerpt: as §2

[12] = test system: chickweed; experiment: Test D preemergence; assay type: in vivo, Stellaria media; settings: for Plant response rating: Chickweed: scale 0 to 100
Excerpt: as §2

[13] = test system: windgrass; experiment: Test D preemergence; assay type: in vivo, Apera spica-venti; settings: for Plant response rating: Windgrass: scale 0 to 100
Excerpt: as §2

[14] = 16 g ai/ha, 0 is no effect, 100 is complete control

## Cn1nc(-c2ccc(F)cc2)nc1Oc1cccc(C(F)(F)F)c1 [Compound 5, 3-(4-fluorophenyl)-1-methyl-5-[3-(trifluoromethyl)phenoxy]-1H-1,2,4-triazole]
[1]
  plant injury at 125 g/ha: 0%
  plant injury at 500 g/ha: 0%
[2]
  pest or weed control at 125 g/ha: 30%
  pest or weed control at 500 g/ha: 60%

## CCCc1nc(-c2ccc(F)cc2)nn1Cc1ccnc(C(F)(F)F)c1 [Compound 6, 4-[[3-(4-fluorophenyl)-5-propyl-1H-1,2,4-triazol-1-yl]methyl]-2-(trifluoromethyl)pyridine]
[3]; 125 g ai/ha
  Plant response rating (scale of 0 to 100 where 0 is no effect and 100 is complete control): 85
[3]; 250 g ai/ha
  Plant response rating (scale of 0 to 100 where 0 is no effect and 100 is complete control): 100
[3]; 31 g ai/ha
  Johnsongrass plant response rating (0 to 100): 60
[3]; 62 g ai/ha
  Johnsongrass plant response rating (0 to 100): 75
[1]
  plant injury at 125 g/ha: 10%
  plant injury at 500 g/ha: 60%
[2]
  pest or weed control at 125 g/ha: 90%
  pest or weed control at 500 g/ha: 100%

## COc1nc(-c2ccc(F)cc2)nn1Cc1ccnc(C(F)(F)F)c1 [Compound 9, 4-[[3-(4-fluorophenyl)-5-methoxy-1H-1,2,4-triazol-1-yl]methyl]-2-(trifluoromethyl)pyridine]
[3]; 125 g ai/ha
  Plant response rating (scale of 0 to 100 where 0 is no effect and 100 is complete control): 65
[3]; 250 g ai/ha
  Plant response rating (scale of 0 to 100 where 0 is no effect and 100 is complete control): 80
[3]; 31 g ai/ha
  Johnsongrass plant response rating (0 to 100): 5
[3]; 62 g ai/ha
  Johnsongrass plant response rating (0 to 100): 20
[1]
  plant injury at 125 g/ha: 0%
  plant injury at 500 g/ha: 50%
[2]
  pest or weed control at 125 g/ha: 50%
  pest or weed control at 500 g/ha: 90%

## Cn1nc(-c2ccc(F)cc2)nc1C(O)c1ccnc(C(F)(F)F)c1 (stereo not drawn) [Compound 14, α-[3-(4-fluorophenyl)-1-methyl-1H-1,2,4-triazol-5-yl]-2-(trifluoromethyl)-4-pyridinemethanol]
[1]
  plant injury at 125 g/ha: 0%
  plant injury at 500 g/ha: 0%
[2]
  pest or weed control at 125 g/ha: 30%
  pest or weed control at 500 g/ha: 50%

## CCn1nc(-c2ccc(F)cc2)nc1C(O)c1ccnc(C(F)(F)F)c1 (stereo not drawn) [Compound 15, α-[1-Ethyl-3-(4-fluorophenyl)-1H-1,2,4-triazol-5-yl]-2-(trifluoromethyl)-4-pyridinemethanol]
[1]
  plant injury at 125 g/ha: 0%
  plant injury at 500 g/ha: 0%
[2]
  pest or weed control at 125 g/ha: 0%
  pest or weed control at 500 g/ha: 0%

## CCCn1nc(-c2ccc(F)cc2)nc1Cc1ccnc(C(F)(F)F)c1 [Compound 17, 4-[[3-(4-fluorophenyl)-1-propyl-1H-1,2,4-triazol-5-yl]methyl]-2-(trifluoromethyl)pyridine]
[1]
  plant injury at 125 g/ha: 30%
  plant injury at 500 g/ha: 70%
[2]
  pest or weed control at 125 g/ha: 90%
  pest or weed control at 500 g/ha: 100%

## CCn1nc(-c2ccc(F)cc2)nc1C(=O)c1ccnc(C(F)(F)F)c1 [Compound 19, [1-ethyl-3-(4-fluorophenyl)-1H-1,2,4-triazol-5-yl][2-(trifluoromethyl)-4-pyridinyl]methanone]
[1]
  plant injury at 125 g/ha: 0%
  plant injury at 500 g/ha: 0%
[2]
  pest or weed control at 125 g/ha: 0%
  pest or weed control at 500 g/ha: 0%

## COc1nc(-c2ccc(Cl)cc2)nn1Cc1ccnc(C(F)(F)F)c1 [Compound 28]
[4]; 16 g ai/ha
  Plant response rating: Canarygrass: 25
[4]; 31 g ai/ha
  Plant response rating: Canarygrass: 30
[4]; 62 g ai/ha
  Plant response rating: Canarygrass: 45
[4]; 125 g ai/ha
  Plant response rating: Canarygrass: 50
[5]; 16 g ai/ha
  Plant response rating: Wheat, Winter: 15
[5]; 31 g ai/ha
  Plant response rating: Wheat, Winter: 20
[5]; 62 g ai/ha
  Plant response rating: Wheat, Winter: 25
[5]; 125 g ai/ha
  Plant response rating: Wheat, Winter: 20
[6]; 16 g ai/ha
  Plant response rating: Wheat, Spring: 10
[6]; 31 g ai/ha
  Plant response rating: Wheat, Spring: 15
[6]; 62 g ai/ha
  Plant response rating: Wheat, Spring: 20
[6]; 125 g ai/ha
  Plant response rating: Wheat, Spring: 25
[7]; 16 g ai/ha
  Plant response rating: Galium: 65
[7]; 31 g ai/ha
  Plant response rating: Galium: 70
[7]; 62 g ai/ha
  Plant response rating: Galium: 75
[7]; 125 g ai/ha
  Plant response rating: Galium: 80
[8]; 16 g ai/ha
  Plant response rating: Ryegrass, Ital.: 20
[8]; 31 g ai/ha
  Plant response rating: Ryegrass, Ital.: 20
[8]; 62 g ai/ha
  Plant response rating: Ryegrass, Ital.: 30
[8]; 125 g ai/ha
  Plant response rating: Ryegrass, Ital.: 45
[9]; [14]
  Plant response rating (0 to 100), Ryegrass, Ital.: 25
[9]; 62 g ai/ha
  Plant response rating: Ryegrass, Ital.: 25
[9]; 125 g ai/ha
  Plant response rating: Ryegrass, Ital.: 55
[10]; 16 g ai/ha
  Plant response rating: Barley, Winter: 10
[10]; 31 g ai/ha
  Plant response rating: Barley, Winter: 15
[10]; 62 g ai/ha
  Plant response rating: Barley, Winter: 20
[10]; 125 g ai/ha
  Plant response rating: Barley, Winter: 25
[11]; 16 g ai/ha
  Plant response rating: Barley, Spring: 15
[11]; 31 g ai/ha
  Plant response rating: Barley, Spring: 20
[11]; 62 g ai/ha
  Plant response rating: Barley, Spring: 20
[11]; 125 g ai/ha
  Plant response rating: Barley, Spring: 25
[12]; [14]
  Plant response rating (0 to 100), Chickweed: 65
[12]; 31 g ai/ha
  Plant response rating: Chickweed: 70
[12]; 62 g ai/ha
  Plant response rating: Chickweed: 70
[12]; 125 g ai/ha
  Plant response rating: Chickweed: 90
[13]; [14]
  Plant response rating (0 to 100), Windgrass: 25
[13]; 62 g ai/ha
  Plant response rating: Windgrass: 50
[13]; 125 g ai/ha
  Plant response rating: Windgrass: 80

## CS(=O)(=O)c1nc(-c2ccc(F)cc2)nn1Cc1ccnc(C(F)(F)F)c1 [Compound 29, 4-[[3-(4-fluorophenyl)-5-(methylsulfonyl)-1H-1,2,4-triazole-1-yl]methyl]-2-(trifluoromethyl)pyridine]
[1]
  plant injury at 125 g/ha: 0%
  plant injury at 500 g/ha: 0%
[2]
  pest or weed control at 125 g/ha: 0%
  pest or weed control at 500 g/ha: 0%

## COc1nc(-c2ccccc2)nn1Cc1ccnc(C(F)(F)F)c1 [Compound 32]
[3]; 125 g ai/ha
  Plant response rating (scale of 0 to 100 where 0 is no effect and 100 is complete control): 30
[3]; 250 g ai/ha
  Plant response rating (scale of 0 to 100 where 0 is no effect and 100 is complete control): 60
[3]; 31 g ai/ha
  Johnsongrass plant response rating (0 to 100): 0
[3]; 62 g ai/ha
  Johnsongrass plant response rating (0 to 100): 0
